Measurements as given in ChEMBL document CHEMBL3822371, “Rapid Discovery and Structure-Activity Relationships of Pyrazolopyrimidines That Potently Suppress Breast Cancer Cell Growth via SRC Kinase Inhibition with Exceptional Selectivity over ABL Kinase” (J Med Chem, 2016).
Activity calls are given as the source filed them. No cut-off for these calls is given here.

Key:
[1] = tested on: MDA-MB-231; experiment: cells; conditions: Homo sapiens, MDA-MB-231, 120 h
[2] = tested on: MCF7; experiment: cells; conditions: Homo sapiens, MCF7, 120 h
[3] = molecular target: T1, Proto-oncogene tyrosine-protein kinase Src (Homo sapiens, UniProt P12931); experiment: biochemical; format: cell-based
[4] = molecular target: Serine/threonine-protein kinase mTOR (Homo sapiens, UniProt P42345); experiment: Inhibition of human mTOR using poly[Glu,Tyr]4:1 as substrate in presence of [gamma-33P]ATP
[5] = molecular target: Tyrosine-protein kinase Fyn (Homo sapiens, UniProt P06241); experiment: Inhibition of human FYN using poly[Glu,Tyr]4:1 as substrate in presence of [gamma-33P]ATP
[6] = molecular target: Tyrosine-protein kinase ABL1 (Homo sapiens, UniProt P00519)
[7] = molecular target: Proto-oncogene tyrosine-protein kinase receptor Ret (Homo sapiens, UniProt P07949); experiment: Inhibition of human RET using poly[Glu,Tyr]4:1 as substrate in presence of [gamma-33P]ATP
[8] = molecular target: Platelet-derived growth factor receptor alpha (Homo sapiens, UniProt P16234); experiment: Inhibition of human PDGFRalpha using poly[Glu,Tyr]4:1 as substrate in presence of [gamma-33P]ATP
[9] = molecular target: Mast/stem cell growth factor receptor Kit (Homo sapiens, UniProt P10721); experiment: Inhibition of human KIT using poly[Glu,Tyr]4:1 as substrate in presence of [gamma-33P]ATP
[10] = tested on: MCF7; experiment: Antiproliferative activity against human MCF7 cells assessed as blockage of cell division at […] after 48 to 120 hrs by microscopy based time-lapse imaging assay; format: functional
[11] = molecular target: Tyrosine-protein kinase Yes (Homo sapiens, UniProt P07947); experiment: Inhibition of human YES using poly[Glu,Tyr]4:1 as substrate in presence of [gamma-33P] ATP
[12] = tested on: MCF7; experiment: Antiproliferative activity against human MCF7 cells assessed as reduction in cell confluence level at […] after 5 days by microscopy based time-lapse imaging assay; format: functional
[13] = molecular target: T1, Proto-oncogene tyrosine-protein kinase Src
[14] = molecular target: Cytochrome P450 2D6 (Homo sapiens, UniProt P10635); experiment: Inhibition of CYP2D6 (unknown origin) at 10 uM; format: ADME
[15] = tested on: MDA-MB-231; experiment: Antimigratory activity in human MDA-MB-231 cells at >10 nM after 24 hrs by microscopy based scratch-wound cell migration assay; format: functional
[16] = molecular target: Cytochrome P450 2C9 (Homo sapiens, UniProt P11712); experiment: Inhibition of CYP2C9 (unknown origin) at 10 uM; format: ADME
[17] = tested on: Plasma; experiment: Metabolic stability in rat plasma at 1 uM after 20 to 120 mins by LC-MS/MS analysis; format: ADME, cell-free
[18] = species on record: Danio rerio; experiment: Effect on the development of the wild-type zebrafish embryos at 500 uM treated for 4 hrs measured at 48 hrs by fluorescent microscopy; format: ADME, organism-based; conditions: in vivo
[19] = Antiproliferative activity against SRC, YES and FYN deficient mouse SYF cells at 3 to 100 nM; format: cell-based; conditions: 0.1 µM
[20] = molecular target: T2, Cytochrome P450 1A2 (Homo sapiens, UniProt P05177); experiment: Inhibition of CYP1A2 (unknown origin) at 10 uM; format: ADME
T2 sequence (P05177 whole entry): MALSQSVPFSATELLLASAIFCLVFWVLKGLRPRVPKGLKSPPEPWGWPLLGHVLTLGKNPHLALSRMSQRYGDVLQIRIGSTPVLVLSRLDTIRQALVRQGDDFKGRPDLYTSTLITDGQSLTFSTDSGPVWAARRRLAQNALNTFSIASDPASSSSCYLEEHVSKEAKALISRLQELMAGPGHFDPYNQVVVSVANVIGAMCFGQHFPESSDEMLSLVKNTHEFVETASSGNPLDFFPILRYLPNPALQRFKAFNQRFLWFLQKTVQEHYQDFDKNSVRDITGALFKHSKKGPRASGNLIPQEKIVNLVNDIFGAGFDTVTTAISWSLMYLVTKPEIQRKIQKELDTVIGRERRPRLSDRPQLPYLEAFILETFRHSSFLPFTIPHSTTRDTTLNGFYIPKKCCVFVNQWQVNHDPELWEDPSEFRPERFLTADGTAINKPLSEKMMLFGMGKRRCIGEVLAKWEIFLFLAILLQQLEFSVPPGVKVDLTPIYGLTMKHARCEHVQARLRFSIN

[21] = tested on: MDA-MB-231; experiment: Cytotoxicity against human MDA-MB-231 cells assessed as reduction in cell viability at >10 nM after 24 hrs; format: cell-based; conditions: mda-mb-231, 24 h
[22] = tested on: MCF7; experiment: Induction of apoptosis in human MCF7 cells assessed as caspase 3/7 activity at >/= 100 nM after 5 days using phase contrast and fluorescent microscopy; format: functional, cell-based
[23] = tested on: Plasma; experiment: Metabolic stability in human plasma at 1 uM after 20 to 120 mins by LC-MS/MS analysis; format: ADME, cell-free
[24] = molecular target: Cytochrome P450 3A4 (Homo sapiens, UniProt P08684); experiment: Inhibition of CYP3A4 (unknown origin) at 10 uM; format: ADME
[25] = tested on: Plasma; experiment: Metabolic stability in mouse plasma at 1 uM after 20 to 120 mins by LC-MS/MS analysis; format: ADME, cell-free
[26] = molecular target: Focal adhesion kinase 1 (Mus musculus) (UniProt P34152); experiment: Inhibition of FAK phosphorylation at tyrosine 861 in SRC, YES and FYN deficient mouse SYF cells at 3 to 100 nM preincubated for 1.5 hrs followed by serum stimulation for 1 hr by Western blot analysis; format: cell-based
[27] = tested on: Mus musculus; experiment: In vivo inhibition of SRC phosphorylation at tyrosine 416 in human HCT116 cells xenografted in mouse at 50 mg/kg via oral gavage administered daily for 3 days measured 3 hrs post last dose by immunohistochemistry; format: functional, organism-based; conditions: HCT-116
[28] = molecular target: Cytochrome P450 2C19 (Homo sapiens, UniProt P33261); experiment: Inhibition of CYP2C19 (unknown origin) at 10 uM; format: ADME
Chain of Cytochrome P450 2C19 (P33261 whole entry): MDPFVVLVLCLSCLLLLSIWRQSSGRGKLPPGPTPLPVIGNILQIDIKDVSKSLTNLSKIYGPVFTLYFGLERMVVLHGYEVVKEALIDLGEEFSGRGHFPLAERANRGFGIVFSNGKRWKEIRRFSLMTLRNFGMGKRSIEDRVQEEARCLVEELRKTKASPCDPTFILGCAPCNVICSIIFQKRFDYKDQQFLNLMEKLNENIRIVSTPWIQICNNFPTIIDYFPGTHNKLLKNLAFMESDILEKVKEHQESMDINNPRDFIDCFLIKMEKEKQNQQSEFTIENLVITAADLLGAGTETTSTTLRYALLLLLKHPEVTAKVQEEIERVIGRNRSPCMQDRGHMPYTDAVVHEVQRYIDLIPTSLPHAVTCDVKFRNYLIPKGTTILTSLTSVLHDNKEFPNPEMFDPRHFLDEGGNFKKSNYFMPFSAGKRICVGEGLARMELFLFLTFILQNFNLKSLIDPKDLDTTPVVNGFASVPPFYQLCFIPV

Chain of Mast/stem cell growth factor receptor Kit (P10721 whole entry): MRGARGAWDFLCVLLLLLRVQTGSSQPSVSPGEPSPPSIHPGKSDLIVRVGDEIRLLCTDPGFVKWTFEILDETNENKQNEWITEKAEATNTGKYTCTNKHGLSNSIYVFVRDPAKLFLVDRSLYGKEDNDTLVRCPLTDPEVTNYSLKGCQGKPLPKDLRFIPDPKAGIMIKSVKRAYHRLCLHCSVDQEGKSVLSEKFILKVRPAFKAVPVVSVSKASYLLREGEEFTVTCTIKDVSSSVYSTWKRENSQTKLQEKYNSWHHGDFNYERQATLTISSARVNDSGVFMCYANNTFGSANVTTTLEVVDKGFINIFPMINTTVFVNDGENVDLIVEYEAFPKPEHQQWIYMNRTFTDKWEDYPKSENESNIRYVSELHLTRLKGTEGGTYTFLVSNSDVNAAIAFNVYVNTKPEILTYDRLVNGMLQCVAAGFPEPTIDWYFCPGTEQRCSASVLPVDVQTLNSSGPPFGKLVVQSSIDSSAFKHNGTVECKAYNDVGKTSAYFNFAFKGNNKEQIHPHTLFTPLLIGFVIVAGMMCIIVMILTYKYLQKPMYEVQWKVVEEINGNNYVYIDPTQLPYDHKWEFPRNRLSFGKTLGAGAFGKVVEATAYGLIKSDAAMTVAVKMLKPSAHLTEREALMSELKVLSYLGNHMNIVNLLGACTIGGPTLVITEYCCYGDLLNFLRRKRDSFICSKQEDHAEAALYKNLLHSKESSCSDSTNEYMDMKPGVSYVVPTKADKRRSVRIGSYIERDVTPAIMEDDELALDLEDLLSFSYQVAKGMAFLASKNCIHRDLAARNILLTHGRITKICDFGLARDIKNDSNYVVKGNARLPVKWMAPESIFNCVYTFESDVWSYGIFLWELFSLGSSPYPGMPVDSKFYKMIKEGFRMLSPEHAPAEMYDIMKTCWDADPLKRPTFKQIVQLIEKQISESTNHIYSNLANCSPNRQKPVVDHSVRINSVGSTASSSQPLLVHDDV
Chain of Platelet-derived growth factor receptor alpha (P16234 whole entry): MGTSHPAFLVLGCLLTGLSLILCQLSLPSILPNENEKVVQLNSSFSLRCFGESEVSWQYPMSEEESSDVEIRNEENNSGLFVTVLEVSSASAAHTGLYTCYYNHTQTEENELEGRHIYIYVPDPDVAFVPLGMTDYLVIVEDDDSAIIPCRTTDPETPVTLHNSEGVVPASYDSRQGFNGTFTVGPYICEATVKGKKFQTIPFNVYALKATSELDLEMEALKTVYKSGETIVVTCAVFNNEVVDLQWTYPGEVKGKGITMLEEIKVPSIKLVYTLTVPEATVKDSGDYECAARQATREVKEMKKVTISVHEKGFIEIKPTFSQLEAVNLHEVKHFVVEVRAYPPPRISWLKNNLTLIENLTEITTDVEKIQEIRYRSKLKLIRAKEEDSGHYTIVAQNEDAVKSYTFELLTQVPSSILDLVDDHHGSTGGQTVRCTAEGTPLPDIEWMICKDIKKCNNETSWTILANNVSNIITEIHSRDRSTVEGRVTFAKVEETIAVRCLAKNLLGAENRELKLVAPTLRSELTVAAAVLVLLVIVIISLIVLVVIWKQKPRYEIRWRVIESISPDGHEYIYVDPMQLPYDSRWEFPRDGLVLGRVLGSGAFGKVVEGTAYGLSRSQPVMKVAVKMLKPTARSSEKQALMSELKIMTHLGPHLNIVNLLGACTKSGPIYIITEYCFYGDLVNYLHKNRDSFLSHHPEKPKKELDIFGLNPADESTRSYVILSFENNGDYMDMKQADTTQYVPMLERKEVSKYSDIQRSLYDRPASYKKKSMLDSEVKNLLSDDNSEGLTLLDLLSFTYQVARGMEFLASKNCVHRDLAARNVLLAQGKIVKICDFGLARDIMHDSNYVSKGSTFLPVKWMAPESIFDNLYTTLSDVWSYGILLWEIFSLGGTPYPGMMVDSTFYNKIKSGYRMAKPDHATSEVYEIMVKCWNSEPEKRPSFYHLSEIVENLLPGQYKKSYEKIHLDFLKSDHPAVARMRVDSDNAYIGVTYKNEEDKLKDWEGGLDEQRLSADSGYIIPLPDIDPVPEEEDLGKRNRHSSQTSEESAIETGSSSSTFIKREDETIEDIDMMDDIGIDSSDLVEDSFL
Chain of Proto-oncogene tyrosine-protein kinase receptor Ret (P07949 whole entry): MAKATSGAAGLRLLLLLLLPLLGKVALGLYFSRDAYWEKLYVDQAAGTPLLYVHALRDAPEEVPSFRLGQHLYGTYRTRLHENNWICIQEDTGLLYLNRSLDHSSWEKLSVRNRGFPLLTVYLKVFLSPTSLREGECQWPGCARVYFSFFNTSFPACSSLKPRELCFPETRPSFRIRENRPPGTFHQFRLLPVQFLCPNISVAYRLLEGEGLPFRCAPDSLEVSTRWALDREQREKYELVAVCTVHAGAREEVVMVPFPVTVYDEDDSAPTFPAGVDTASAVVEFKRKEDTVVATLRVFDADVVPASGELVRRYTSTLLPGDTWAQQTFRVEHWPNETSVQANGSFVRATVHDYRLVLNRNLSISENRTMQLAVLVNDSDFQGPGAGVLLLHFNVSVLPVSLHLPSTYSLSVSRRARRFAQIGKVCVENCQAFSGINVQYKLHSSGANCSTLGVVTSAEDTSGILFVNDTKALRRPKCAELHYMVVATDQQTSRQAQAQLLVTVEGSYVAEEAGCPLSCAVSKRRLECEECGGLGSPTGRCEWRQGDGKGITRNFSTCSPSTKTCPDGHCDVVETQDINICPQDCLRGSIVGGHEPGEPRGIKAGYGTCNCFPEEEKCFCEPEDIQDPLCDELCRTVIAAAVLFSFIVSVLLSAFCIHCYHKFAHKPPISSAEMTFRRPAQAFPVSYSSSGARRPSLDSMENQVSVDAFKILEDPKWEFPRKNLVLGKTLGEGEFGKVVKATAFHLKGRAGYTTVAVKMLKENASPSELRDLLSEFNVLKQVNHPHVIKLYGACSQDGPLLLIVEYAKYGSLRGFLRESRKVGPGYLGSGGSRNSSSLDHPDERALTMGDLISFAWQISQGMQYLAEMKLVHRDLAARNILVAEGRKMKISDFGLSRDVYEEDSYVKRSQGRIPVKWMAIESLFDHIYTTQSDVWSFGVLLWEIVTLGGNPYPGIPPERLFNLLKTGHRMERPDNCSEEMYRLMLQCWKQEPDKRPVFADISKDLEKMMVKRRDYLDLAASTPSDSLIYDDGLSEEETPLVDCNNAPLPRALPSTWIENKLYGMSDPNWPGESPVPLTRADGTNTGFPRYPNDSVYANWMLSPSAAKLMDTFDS
Chain of Tyrosine-protein kinase Yes (P07947 whole entry): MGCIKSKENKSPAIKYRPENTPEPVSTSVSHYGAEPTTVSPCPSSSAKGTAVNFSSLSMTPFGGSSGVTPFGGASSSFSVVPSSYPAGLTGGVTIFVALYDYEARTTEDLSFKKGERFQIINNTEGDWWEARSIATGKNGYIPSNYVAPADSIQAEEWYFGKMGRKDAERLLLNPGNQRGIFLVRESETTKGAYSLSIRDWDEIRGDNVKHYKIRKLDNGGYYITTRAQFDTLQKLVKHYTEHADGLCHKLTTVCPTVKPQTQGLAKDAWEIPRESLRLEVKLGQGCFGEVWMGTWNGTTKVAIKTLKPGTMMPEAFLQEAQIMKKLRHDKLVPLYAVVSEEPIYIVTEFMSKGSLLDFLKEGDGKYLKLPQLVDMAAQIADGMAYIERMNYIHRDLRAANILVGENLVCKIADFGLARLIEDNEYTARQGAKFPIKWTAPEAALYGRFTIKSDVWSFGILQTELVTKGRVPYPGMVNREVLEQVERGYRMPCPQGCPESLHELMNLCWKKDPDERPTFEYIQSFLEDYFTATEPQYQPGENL
T1 sequence (P12931 2-536 limits assumed): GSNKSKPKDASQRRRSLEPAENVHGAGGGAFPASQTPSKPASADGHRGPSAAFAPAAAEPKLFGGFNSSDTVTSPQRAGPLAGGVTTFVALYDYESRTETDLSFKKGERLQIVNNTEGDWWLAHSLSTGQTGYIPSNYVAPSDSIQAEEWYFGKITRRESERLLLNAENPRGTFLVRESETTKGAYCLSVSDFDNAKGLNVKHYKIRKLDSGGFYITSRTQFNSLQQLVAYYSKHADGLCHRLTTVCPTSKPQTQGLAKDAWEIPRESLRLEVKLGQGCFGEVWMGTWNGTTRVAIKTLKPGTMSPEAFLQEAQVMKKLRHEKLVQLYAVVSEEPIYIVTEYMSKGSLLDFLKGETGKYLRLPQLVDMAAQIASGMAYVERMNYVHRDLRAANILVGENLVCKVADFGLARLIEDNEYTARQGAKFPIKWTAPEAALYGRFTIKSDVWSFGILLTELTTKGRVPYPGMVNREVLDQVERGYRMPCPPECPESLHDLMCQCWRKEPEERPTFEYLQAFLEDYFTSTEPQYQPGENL

With `CN(C)C1CCN(CCn2nc(-c3ccc4c(ccn4C(=O)OC(C)(C)C)c3)c3c(N)ncnc32)CC1` the EC50 [1] was 4.15 µM.

`COc1cc(-c2nn(CCN3CCC(N(C)C)CC3)c3ncnc(N)c23)ccc1CC(=O)N1CCCC1` gave an EC50 [1] greater than 100 µM.

Work on `CCOC(Cn1nc(-c2cccc(O)c2)c2c(N)ncnc21)OCC` yielded an EC50 [2] of 7.6 µM.

With `CN(C)C1CCN(CCn2nc(-c3cccc(NC(=O)OC(C)(C)C)c3)c3c(N)ncnc32)CC1` the EC50 [1] was 26.8 µM.

For `CCOC(Cn1nc(-c2ccc3ncccc3c2)c2c(N)ncnc21)OCC`, the EC50 [2] was 263 µM.

Compound `CN(C)CC1CCN(CCn2nc(-c3cccc(O)c3)c3c(N)ncnc32)CC1` has an EC50 [2] of 30.3 µM.

`CCOC(Cn1nc(-c2cnc3[nH]ccc3c2)c2c(N)ncnc21)OCC` showed an IC50 [3] of 2.45 µM, an IC50 [4] of 0.328 µM and an IC50 [5] of 1.23 µM. For the same compound, the IC50 [6] was 1.21 µM, the IC50 [7] was 0.598 µM and the IC50 [8] was greater than 10 µM. The IC50 [9] was greater than 10 µM, the Activity [10] was “Active” and the IC50 [11] was 0.566 µM.

In the case of `CN(C)C1CCN(CCn2nc(-c3ccc(NC(=O)OC(C)(C)C)c(O)c3)c3c(N)ncnc32)CC1`, the EC50 [1] is reported as 9.71 µM.

For `COc1cc(-c2nn(CCN3CCC(N(C)C)CC3)c3ncnc(N)c23)ccc1NC(=O)CCc1ccccc1`, the EC50 [1] was 12.2 µM.

For `Cc1ccc(-c2nn(CCN3CCC(N(C)C)CC3)c3ncnc(N)c23)cc1`, the Activity [12] was “Active”, the IC50 [4] was greater than 10 µM and the IC50 [7] was 6.58 µM. It also gave an IC50 [8] greater than 10 µM and an IC50 [9] greater than 10 µM.

With `COc1cc(-c2nn(CCN3CCC(N(C)C)CC3)c3ncnc(N)c23)ccc1NC(=O)OC(C)(C)C` the TDI [13] was “inactive”, the “inhibition (INH)” value [14] was “Not Active” and the Activity [15] was “Active”. For the same compound, the “inhibition (INH)” value [16] was “Not Active”, the Stability [17] was “Stable” and the Activity [18] was “Non-toxic”. For the same compound, the Activity [19] was “Non-toxic”, the “inhibition (INH)” value [20] was “Active” and the IC50 [9] was greater than 10 µM. The Activity [21] was “Toxic”, the Activity [22] was “Active” and the Stability [23] was “Stable”. The “inhibition (INH)” value [24] was “Not Active”, the Stability [25] was “Stable” and the inhibition [26] was “inactive”. The inhibition [27] was “Active” and the “inhibition (INH)” value [28] was “Not Active”.

For `CCOC(Cn1nc(C#Cc2ccccc2)c2c(N)ncnc21)OCC`, the EC50 [2] was 5 µM.

For `CN(C)CC1CCN(CCn2nc(-c3ccoc3)c3c(N)ncnc32)CC1`, the EC50 [2] was 57.1 µM.

Work on `COc1cc(-c2nn(CCN3CCC(OC)CC3)c3ncnc(N)c23)ccc1NC(=O)OC(C)(C)C` yielded an EC50 [1] of 1.96 µM.

With `Cc1ccc(-c2nn(CCN3CCN(C)CC3)c3ncnc(N)c23)cc1` the Activity [12] was “Active”.

With `Cc1ccc(-c2nn(C(C)(C)C)c3ncnc(N)c23)cc1` the IC50 [8] was 0.657 µM and the IC50 [11] was 0.036 µM.

For `COc1cc(-c2nn(CCN3CCC(N(C)C)CC3)c3ncnc(N)c23)ccc1N`, the EC50 [1] was 6.72 µM.

In the case of `Cc1ccc(-c2nn(CCN3CCN(CCN(C)C)CC3)c3ncnc(N)c23)cc1`, the Activity [12] is reported as “Active”.
